The source of these data is patent US20240366598A1, “GLUCOSE-DEPENDENT INSULINOTROPIC POLYPEPTIDE RECEPTOR ANTAGONISTS AND USES THEREOF” (Pfizer Inc., priority 2023, published 2024).

SMILES strings stand for the structures.

The experiment addresses T1, human Glucose-dependent Insulinotropic Polypeptide Receptor (hGIPR) (Homo sapiens, UniProt P48546).
T1 sequence (P48546 22-466): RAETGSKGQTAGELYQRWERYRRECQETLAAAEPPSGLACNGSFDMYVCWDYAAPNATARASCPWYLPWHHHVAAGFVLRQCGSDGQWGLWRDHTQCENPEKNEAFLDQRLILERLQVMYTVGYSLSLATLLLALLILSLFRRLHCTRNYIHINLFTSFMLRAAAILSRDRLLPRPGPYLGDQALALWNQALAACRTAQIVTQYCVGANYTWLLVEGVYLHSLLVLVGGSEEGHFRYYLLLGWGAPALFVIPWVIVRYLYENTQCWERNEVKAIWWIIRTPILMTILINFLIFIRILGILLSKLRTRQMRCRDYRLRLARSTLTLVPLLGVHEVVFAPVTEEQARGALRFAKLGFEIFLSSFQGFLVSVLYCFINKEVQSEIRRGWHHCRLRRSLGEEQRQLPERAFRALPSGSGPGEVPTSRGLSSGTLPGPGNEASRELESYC
Briefly: Functional in vitro GIPR antagonist potency assay (cAMP HTRF, CHO-K1 cells stably expressing hGIPR, hGIP stimulation at about EC80). It is filed as cell-based. Particulars: geometric mean, hGIP at estimated EC80, examples marked ^2: overall geometric mean of multiple forms (including salts) tested. An outline of the steps:
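HTRF quantification of cAMP after stimulation with hGIP at an estimated EC80 for 30 min at 37 °C. Before stimulation, hGIPR-expressing CHO-K1 cells were exposed 2 h to test compound in IBMX-containing buffer, with 0.5% DMSO final. Percent effect is referenced to agonist alone (0%) and to 80 μM of a reference antagonist (100%), and runs required the agonist concentration to fall within the on-the-day EC50–EC90.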
Take `CC(C)c1ccc(NC(=O)N2CCC[C@@H]2C(=O)Nc2ccc(-c3c(F)ccc(C(=O)O)c3F)cc2)cc1` [Example 80, 2,6-difluoro-4′-[(1-{[4-(propan-2-yl)phenyl]carbamoyl}-D-prolyl)amino][1,1′-biphenyl]-3-carboxylic acid]: the IC50 (as a rule, the point on the concentration scale where inhibition reaches its midpoint) was 400 nM.

For `COc1cc(C(=O)O)c(F)cc1-c1ccc(NC(=O)[C@H]2CCCN2C(=O)Nc2ccc(C(C)C)cc2)cc1` [Example 81, 5-fluoro-2-methoxy-4′-[(1-{[4-(propan-2-yl)phenyl]carbamoyl}-D-prolyl)amino][1,1′-biphenyl]-4-carboxylic acid], the IC50 is 210 nM.

Regarding `CC(C)c1ccc(NC(=O)N2CCC[C@@H]2C(=O)Nc2ccc(-c3cc(F)c(C(=O)O)cc3F)cc2)cc1` [Example 82, 2,5-difluoro-4′-[(1-{[4-(propan-2-yl)phenyl]carbamoyl}-D-prolyl)amino][1,1′-biphenyl]-4-carboxylic acid], the IC50 is 27 nM.

As for `CC(C)c1ccc(NC(=O)N2CCC[C@@H]2C(=O)Nc2ccc(-c3cc(F)c(C(=O)O)c(Cl)c3)cc2)cc1` [Example 83, 3-chloro-5-fluoro-4′-[(1-{[4-(propan-2-yl)phenyl]carbamoyl}-D-prolyl)amino][1,1′-biphenyl]-4-carboxylic acid], the IC50 is 230 nM.

On to `Cc1cc(C(=O)O)c(F)cc1-c1ccc(NC(=O)[C@H]2CCCN2C(=O)Nc2ccc(C(C)C)cc2)cc1` [Example 84, 5-fluoro-2-methyl-4′-[(1-{[4-(propan-2-yl)phenyl]carbamoyl}-D-prolyl)amino][1,1′-biphenyl]-4-carboxylic acid], for which the IC50 was 19 nM.

For the compound `CC(C)c1ccc(NC(=O)N2CCC[C@@H]2C(=O)Nc2ccc(-c3cc(F)cc(C(=O)O)c3)cc2)cc1` [Example 85, 5-fluoro-4′-[(1-{[4-(propan-2-yl)phenyl]carbamoyl}-D-prolyl)amino][1,1′-biphenyl]-3-carboxylic acid], the IC50 was 260 nM.

For the compound `Cc1cc(-c2ccc(NC(=O)[C@H]3CCCN3C(=O)Nc3ccc(C(C)C)cc3)cc2)c(F)cc1C(=O)O` [Example 86, 2-fluoro-5-methyl-4′-[(1-{[4-(propan-2-yl)phenyl]carbamoyl}-D-prolyl)amino][1,1′-biphenyl]-4-carboxylic acid], the IC50 was 7.5 nM.

`Cc1c(C(=O)O)ccc(-c2ccc(NC(=O)[C@H]3CCCN3C(=O)Nc3ccc(C(C)C)cc3)cc2)c1F` [Example 87, 2-fluoro-3-methyl-4′-[(1-{[4-(propan-2-yl)phenyl]carbamoyl}-D-prolyl)amino][1,1′-biphenyl]-4-carboxylic acid]: the IC50 is 11 nM.

In the case of `CC(C)c1ccc(NC(=O)N2CCC[C@@H]2C(=O)Nc2ccc(-c3ccc(F)c(C(=O)O)c3F)cc2)cc1` [Example 88, 2,4-difluoro-4′-[(1-{[4-(propan-2-yl)phenyl]carbamoyl}-D-prolyl)amino][1,1′-biphenyl]-3-carboxylic acid], the IC50 was 430 nM.

Consider `COc1cc(-c2ccc(NC(=O)[C@H]3CCCN3C(=O)Nc3ccc(C(C)C)cc3)cc2)c(F)cc1C(=O)O` [Example 89, 2-fluoro-5-methoxy-4′-[(1-{[4-(propan-2-yl)phenyl]carbamoyl}-D-prolyl)amino][1,1′-biphenyl]-4-carboxylic acid], for which the IC50 is 18 nM.

As for `Cc1cc(C(=O)O)cc(Cl)c1-c1ccc(NC(=O)[C@H]2CCCN2C(=O)Nc2ccc(C(C)C)cc2)cc1` [Example 90, 2-chloro-6-methyl-4′-[(1-{[4-(propan-2-yl)phenyl]carbamoyl}-D-prolyl)amino][1,1′-biphenyl]-4-carboxylic acid], the IC50 is 45 nM.

For `CC(C)c1ccc(NC(=O)N2CCC[C@@H]2C(=O)Nc2ccc(-c3ccc(C(N)=O)cc3)cc2)cc1` [Example 91, (2R)-N^2-(4′-carbamoyl[1,1′-biphenyl]-4-yl)-N^1-[4-(propan-2-yl)phenyl]pyrrolidine-1,2-dicarboxamide], the IC50 was 39 nM.

Consider `COc1cc(C(=O)O)cc(C)c1-c1ccc(NC(=O)[C@H]2CCCN2C(=O)Nc2ccc(C(C)C)cc2)cc1` [Example 92, 2-methoxy-6-methyl-4′-[(1-{[4-(propan-2-yl)phenyl]carbamoyl}-D-prolyl)amino][1,1′-biphenyl]-4-carboxylic acid], for which the IC50 is 87 nM.

Consider `COc1ccc(-c2ccc(NC(=O)[C@H]3CCCN3C(=O)Nc3ccc(C(C)C)cc3)cc2)cc1C(=O)O` [Example 93, 4-methoxy-4′-[(1-{[4-(propan-2-yl)phenyl]carbamoyl}-D-prolyl)amino][1,1′-biphenyl]-3-carboxylic acid], for which the IC50 is 79 nM.

Turning to `Cc1ccc(C(=O)O)cc1-c1ccc(NC(=O)[C@H]2CCCN2C(=O)Nc2ccc(C(C)C)cc2)cc1` [Example 94, 6-methyl-4′-[(1-{[4-(propan-2-yl)phenyl]carbamoyl}-D-prolyl)amino][1,1′-biphenyl]-3-carboxylic acid], the IC50 was 190 nM.

As to `CCc1cc(-c2ccc(NC(=O)[C@H]3CCCN3C(=O)Nc3ccc(C(C)C)cc3)cc2)ccc1C(=O)O` [Example 95, 3-ethyl-4′-[(1-{[4-(propan-2-yl)phenyl]carbamoyl}-D-prolyl)amino][1,1′-biphenyl]-4-carboxylic acid], the IC50 was 13 nM.

Take `CC(C)c1ccc(NC(=O)N2CCC[C@@H]2C(=O)Nc2ccc(-c3ccc(O)c(Cl)c3)cc2)cc1` [Example 96, (2R)-N^2-(3′-chloro-4′-hydroxy[1,1′-biphenyl]-4-yl)-N^1-[4-(propan-2-yl)phenyl]pyrrolidine-1,2-dicarboxamide]: the IC50 was 180 nM.

As for `Cc1cc(O)ccc1-c1ccc(NC(=O)[C@H]2CCCN2C(=O)Nc2ccc(C(C)C)cc2)cc1` [Example 97, (2R)-N^2-(4′-hydroxy-2′-methyl[1,1′-biphenyl]-4-yl)-N^1-[4-(propan-2-yl)phenyl]pyrrolidine-1,2-dicarboxamide], the IC50 was 230 nM.

With `CC(C)c1ccc(NC(=O)N2CCC[C@@H]2C(=O)Nc2ccc(-c3cc(Cl)c(C(=O)O)cc3F)cc2)cc1` [Example 98, 5-chloro-2-fluoro-4′-[(1-{[4-(propan-2-yl)phenyl]carbamoyl}-D-prolyl)amino][1,1′-biphenyl]-4-carboxylic acid], the IC50 is 30 nM.

For `CC(C)c1ccc(NC(=O)N2CCC[C@@H]2C(=O)Nc2ccc(-c3cc(F)c(O)c(F)c3)cc2)cc1` [Example 99, (2R)-N^2-(3′,5′-difluoro-4′-hydroxy[1,1′-biphenyl]-4-yl)-N^1-[4-(propan-2-yl)phenyl]pyrrolidine-1,2-dicarboxamide], the IC50 is 18 nM.

For `CC(C)c1ccc(NC(=O)N2CCC[C@@H]2C(=O)Nc2ccc(-c3ccc(O)c(C#N)c3)cc2)cc1` [Example 100, (2R)-N^2-(3′-cyano-4′-hydroxy[1,1′-biphenyl]-4-yl)-N^1-[4-(propan-2-yl)phenyl]pyrrolidine-1,2-dicarboxamide], the IC50 was 27 nM.

In the case of `O=C(O)c1ccc(-c2ccc(NC(=O)[C@H]3CCCN3C(=O)Nc3cnc(C(F)(F)F)nc3)cc2)cc1` [Example 101, 4′-[(1-{[2-(trifluoromethyl)pyrimidin-5-yl]carbamoyl}-D-prolyl)amino][1,1′-biphenyl]-4-carboxylic acid], the IC50 is 92 nM.

`Cc1nc(NC(=O)N2CCC[C@@H]2C(=O)Nc2ccc(-c3ccc(C(=O)O)cc3)cc2)ccc1C(C)C` [Example 102, 4′-[(1-{[6-methyl-5-(propan-2-yl)pyridin-2-yl]carbamoyl}-D-prolyl)amino][1,1′-biphenyl]-4-carboxylic acid]: the IC50 is 690 nM.

As for `O=C(O)c1ccc(-c2ccc(NC(=O)[C@H]3CCCN3C(=O)Nc3ccc(Cl)cc3Cl)cc2)cc1` [Example 103, 4′-({1-[(2,4-dichlorophenyl)carbamoyl]-D-prolyl}amino)[1,1′-biphenyl]-4-carboxylic acid], the IC50 is 29 nM.

For the compound `CC(C)c1ccc(NC(=O)N2C[C@H]3C[C@H]3[C@@H]2C(=O)Nc2ccc(-c3ccc(C(=O)O)cc3)cc2)cc1` [Example 104, 4′-{[(1R,2R,5S)-3-{[4-(propan-2-yl)phenyl]carbamoyl}-3-azabicyclo[3.1.0]hexane-2-carbonyl]amino}[1,1′-biphenyl]-4-carboxylic acid], the IC50 is 2.9 nM.

Take `CC(C)c1ccc(NC(=O)N2C[C@@H]3C[C@@H]3[C@@H]2C(=O)Nc2ccc(-c3ccc(C(=O)O)cc3)cc2)cc1` [Example 105, 4′-{[(1S,2R,5R)-3-{[4-(propan-2-yl)phenyl]carbamoyl}-3-azabicyclo[3.1.0]hexane-2-carbonyl]amino}[1,1′-biphenyl]-4-carboxylic acid]: the IC50 is 8.8 nM.

For `Cc1cc(NC(=O)N2CCC[C@@H]2C(=O)Nc2ccc(-c3ccc(C(=O)O)cc3)cc2)ccc1C(F)(F)F` [Example 106, 4′-[(1-{[3-methyl-4-(trifluoromethyl)phenyl]carbamoyl}-D-prolyl)amino][1,1′-biphenyl]-4-carboxylic acid], the IC50 was 3 nM.

Regarding `N#Cc1cc(CNC(=O)N2CCC[C@@H]2C(=O)Nc2ccc(-c3ccc(C(=O)O)cc3)cc2)ccc1Cl` [Example 107, 4′-[(1-{[(4-chloro-3-cyanophenyl)methyl]carbamoyl}-D-prolyl)amino][1,1′-biphenyl]-4-carboxylic acid], the IC50 was 720 nM.
